Data published in publication PMC8154258, “Multivalent Presentations of Glycomimetic Inhibitor of the Adhesion of Fungal Pathogen Candida albicans to Human Buccal Epithelial Cells” (Bioconjugate Chemistry, 2021).

System: C. albicans biofilm formation
Experiment: Biofilm assay (crystal violet, 96-well plate)
Type: cell-based, Candida albicans
Protocol: C. albicans (MEN, serotype B, clinical isolate from a corneal infection) was maintained on sabouraud dextrose agar, and cultures were grow to the stationary phase ((1–2) × 10^8 cells/mL) overnight in YEPD broth (1% (w/v) yeast extract, 2% (w/v) bacteriological peptone, 2% (w/v) glucose) at 30 °C, and 200 rpm. Stationary phase yeast cells were harvested, washed with PBS, and resuspended at a density of 1 × 10^8 cells/mL in PBS.
C. albicans cells were washed twice with PBS and enumerated before being resuspended in RPMI to give a cell density of (2 × 10^7 cells/mL). Compounds were resuspended in PBS to give a concentration of 2 mg/mL. The compounds (250 μL) were mixed with RPMI (250 μL) in a 1:1 ratio to give a concentration of 1 mg/mL. PBS (250 μL) was mixed with RPMI (250 μL).
C. albicans cells (500 μL, 2 × 10^7 cells/mL) were incubated with compounds (1 mg/mL) in a 1:1 ratio to give a final cell density to concentration ratio of […]. The suspension was incubated for 3 h at rt and mixed by vortex every 20 min to prevent cells from falling out of solution. Cell suspension (100 μL) was added to wells of a 96-well flat bottom plate. The plate was incubated at 37 °C for 24 h. […] The plate was read at 550 nm in a 96-well plate reader. The percentage reduction in biofilm was calculated by dividing the absorbance value of the treated cells into that of the control.

## O=C[C@H](O)[C@@H](O)[C@@H](O)[C@H](O)CO [D-galactose]
Figure 4, relative to PBS control, compound 1 mg/mL mixed 1:1 with cells, 24 h at 37 °C, crystal violet, 550 nm, error: standard deviation
  % Change in biofilm formation: 114%
Biofilm growing conditions, positive control
  effect on biofilm formation (in words): promoted the formation of the biofilm
